The numbers were not newly measured in patent publication US10507188B2, “Particles containing an opioid receptor antagonist and methods of use” (priority 2008, dated 2019), which cites them from elsewhere.

The conditions of this data set: white crystalline powder, typically the bromide salt (Mallinckrodt).

`C[N+]1(CC2CC2)CCC23c4c5ccc(O)c4OC2C(=O)CCC3(O)C1C5` (stereo not shown) [MNTX, N-methylnaltrexone]: the solubility in water result is given as “freely soluble in water”.
